The values that follow come from patent US6673931B2, “Naphthalenyl piperidines as renin inhibitors” (Hoffman-La Roche Inc., priority 1999, dated 2004).

Where a name gives a salt, the structure may show the parent alone.

The assay has as its target T1, human renin (Homo sapiens, UniProt P00797).
T1 sequence (P00797 67-406): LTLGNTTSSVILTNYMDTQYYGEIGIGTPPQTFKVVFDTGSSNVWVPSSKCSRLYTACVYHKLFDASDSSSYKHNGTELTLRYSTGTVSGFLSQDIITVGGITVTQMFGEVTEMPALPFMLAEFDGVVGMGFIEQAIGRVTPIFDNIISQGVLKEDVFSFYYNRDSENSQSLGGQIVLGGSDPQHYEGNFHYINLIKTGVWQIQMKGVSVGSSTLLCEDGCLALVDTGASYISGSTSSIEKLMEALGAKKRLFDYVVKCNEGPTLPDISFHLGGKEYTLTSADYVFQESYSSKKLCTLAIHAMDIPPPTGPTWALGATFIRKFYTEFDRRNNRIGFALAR
The experiment in a line: In vitro test with pure human renin (angiotensin I production via RIA). It counts as biochemical. To be noted: human tetradecapeptide renin substrate (hTD), pH 7.4, three hours at 37° C. The method, then: The tests can be carried out in analogy to those described by D. T. Pals et al. in Hypertension Vol. 8, 1105-1112 (1986) or J. Boger et al. in J. Med. Chem. 28, 1779-1790 (1985) or J. F. Dellaria et al. in J. Med. Chem. 30,2137-2144 (1987) or T. Kokubu et al. in Biochem. Biophys. Res. Commun. 118, 929-933 (1984):
In vitro test with pure human renin:
The test is carried out in Eppendorf test tubes. The incubation mixture consists of (1) 100 μl of human renin in buffer A (0.1 M sodium phosphate solution, pH 7.4, containing 0.1% bovine serum albumin, 0.1% sodium azide and 1 mM ethylenediaminetetraacetic acid), sufficient for a renin activity of 2-3 ng of angiotensin I/ml/hr.; (2) 145 μl of buffer A: (3) 30 μl of 10 mM human tetradecapeptide renin substrate (hTD) in 10 mM hydrochloric acid: (4) 15 μl of dimethyl sulphoxide with or without inhibitor and (5) 10 μl of a 0.03 molar solution of hydroxyquinoline sulphate in water.
The samples are incubated for three hours at 37° C. and, respectively, 4° C. in triplicate. 2×100 μl samples per test tube are used in order to measure the production of angiotensin I via RIA (standard radioimmunoassay; clinical assay solid phase kit). Cross reactivities of the antibody used in the RIA are: angiotensin I 100%; angiotensin II 0.0013%; hTD (angiotensin I-Val-Ile-His-Ser-OH) 0.09%. The production of angiotensin I is determined by the difference between the test at 37° C. and that at 4° C.
The following controls are carried out:
(a) Incubation of hTD samples without renin and without inhibitor at 37° C. and 40° C. The difference between these two values gives the base value of the angiotensin I production.
(b) Incubation of hTD samples with renin, but without inhibitor at 37° C. and 4° C. The difference between these values gives the maximum value of the angiotensin I production.
In each sample the base value of the angiotensin I production is subtracted from the angiotensin I production which is determined. The difference between the maximum value and the base value gives the value of the maximum substrate hydrolysis (=100%) by renin.
The results are given as IC50 values which denote the concentration of the inhibitor at which the enzymatic activity is inhibited by 50%. The IC50 values are determined from a linear regression curve from a logit-log plot.

As for `COc1ccccc1COCCCOc1ccc([C@H]2[C@H](Cn3ccnc3)CNC[C@@H]2OCc2cc(OC)c3ccccc3c2)cc1` [E, (3S,4R,5R)-3-imidazol-1-ylmethyl-4-[4-[3-(2-methoxy-benzyloxy)-propoxy]-phenyl]-5-(4-methoxy-naphthalen-2-ylmethoxy)-piperidine dihydrochloride], the IC50 (usually the concentration that inhibits the measured activity by half) is 0.07 nM.

On to `COc1cc(CO[C@H]2CNC[C@@H](OC[C@H](O)CO)[C@@H]2c2ccc(OCCCOc3ccccc3[N+](=O)[O-])cc2)cc2ccccc12` [C, (R)-3-[(3S,4R,5R)-5-(4-methoxy-naphthalen-2-ylmethoxy)-4-[4-[3-(2-nitro-phenoxy)-propoxy]-phenyl]-piperidin-3-yloxy]-propane-1,2-diol], for which 0.08 nM corresponded to half-maximal inhibition (IC50).

Molecule `COCCOC[C@@H](O)CO[C@@H]1CNC[C@H](OCc2cc(OC)c3ccccc3c2)[C@H]1c1ccc(OCCCOCc2ccccc2OC)cc1` [B, (R)-1-[(3S,4R,5R)-4-[4-[3-(2-methoxy-benzyloxy)-propoxy]-phenyl]-5-(4-methoxy-naphthalen-2-ylmethoxy)-piperidin-3-yloxy]-3-(2-methoxy-ethoxy)-propan-2-ol] registered an IC50 of 0.03 nM.

As for `COC[C@@H](O)CO[C@@H]1CNC[C@H](OCc2cc(OC)c3ccccc3c2)[C@H]1c1ccc(OCCCOCc2ccccc2OC)cc1` [A, (R)-1-methoxy-3-[(3S,4R,5R)-4-[4-[3-(2-methoxy-benzyloxy)-propoxy]-phenyl]-5-(4-methoxy-naphthalen-2-ylmethoxy)-piperidin-3-yloxy]-propan-2-ol], half-maximal inhibition (IC50) was put at 0.06 nM.

Molecule `COc1ccccc1COCCCOc1ccc([C@H]2[C@H](CO)CNC[C@@H]2OCc2cc(OC)c3ccccc3c2)cc1` [D, (3S,4R,5R)-[4-[4-[3-(2-methoxy-benzyloxy)-propoxy]-phenyl]-5-(4-methoxy-naphthalen-2-ylmethoxy)-piperidin-3-yl]-methanol] showed an IC50 of 0.02 nM.
